Patent EP0526502B1, “PHENOLIC AMINE DEPIGMENTING AND ANTIMELANOMA AGENTS” (The Governors of the University of Alberta, priority 1990, dated 1991)

Tests used:
[1] = system: B16 melanoma; assay: In vivo growth inhibition of s.c. inoculated B16 melanoma; parameters: species or system C57BL/6J mice; details: day 12 or 13
Procedure: The in vivo antimelanoma effect of the compounds were evaluated by percent growth inhibition of inoculated tumour (%g.i.). The percent g.i. was computed from the mean tumour volume at day 12 or 13 of the experiments; i.e., 100 x (1- treated group/control group). […] To further examine whether a minimal dose of N-Ac-4-S-CAP, 200 mg/Kg has an antimelanoma effect, three groups of mice were treated with N-Ac-4-S-CAP. […] One of the advantages of N-Ac-4-S-CAP over 4-S-CAP was that it had much higher LD⁵⁰ (as high as 1400 mg/Kg of body weight, and therefore a greater range of safety).

[2] = Acute toxicity / lethal dose and maximum tolerable dose
Procedure: 3:1-85 1972. In accordance with this Protocol, ten to fifteen mice were used in each test group. They were weighed and randomized at day one after s.c. inoculation of B16 melanoma cells. From day five, the phenolic melanin precursors were administered i.p. daily for nine days. The test compounds were dissolved in normal saline, and sterilized by heating to 100°C for 2 minutes. […] They were administered i.p. with the following doses: 400 mg/Kg - 4-S-CAP; 200 to 300 mg/Kg - 4-S-CAP; and 200 to 1200 mg/Kg - N-Ac-4-S-CAP. A catalytic amount of L-dopa, 25 mg/Kg and antidecarboxylase, carbidopa, 400 mg/Kg, were also administered. Carbidopa was given one hour prior to L-dopa administration. DTIC (NSC 4538) was used as a control drug at a dose of 60 mg/Kg. Acute toxicity of 4-S-CP and 4-S-CAP was evaluated from 100 to 1600 mg/Kg.
The B16 mouse melanoma was maintained by s.c. inoculation of tumour cells into the back of C57BL7J mice (5 to 6 weeks, female). […] Briefly, excised tumours were homogenized in normal saline. The homogenized tumour cells were then passed through a sterile 80 mesh stainless steel screen, washed with normal saline, centrifuged (500 g. for 10 minutes) and resuspended in normal saline. Suspensions of viable melanoma cells at the concentration of 1 x 10⁶ per 0.1 ml were inoculated s.c. into both the right and left inguinal areas of C57BL/6J mice (female, 5 to 6 weeks old, 18 to 20 gm).

[3] = biological target: T1, plasma MAO (Bos taurus, UniProt Q29437); assay: Enzyme kinetics with monoamineoxidase (substrate disappearance by HPLC, Lineweaver-Burk); assay type: biochemical; details: result in words
T1 construct: purchased Sigma Chemical Co. (St. Louis, MO, USA)
T1 sequence (Q29437 17-762): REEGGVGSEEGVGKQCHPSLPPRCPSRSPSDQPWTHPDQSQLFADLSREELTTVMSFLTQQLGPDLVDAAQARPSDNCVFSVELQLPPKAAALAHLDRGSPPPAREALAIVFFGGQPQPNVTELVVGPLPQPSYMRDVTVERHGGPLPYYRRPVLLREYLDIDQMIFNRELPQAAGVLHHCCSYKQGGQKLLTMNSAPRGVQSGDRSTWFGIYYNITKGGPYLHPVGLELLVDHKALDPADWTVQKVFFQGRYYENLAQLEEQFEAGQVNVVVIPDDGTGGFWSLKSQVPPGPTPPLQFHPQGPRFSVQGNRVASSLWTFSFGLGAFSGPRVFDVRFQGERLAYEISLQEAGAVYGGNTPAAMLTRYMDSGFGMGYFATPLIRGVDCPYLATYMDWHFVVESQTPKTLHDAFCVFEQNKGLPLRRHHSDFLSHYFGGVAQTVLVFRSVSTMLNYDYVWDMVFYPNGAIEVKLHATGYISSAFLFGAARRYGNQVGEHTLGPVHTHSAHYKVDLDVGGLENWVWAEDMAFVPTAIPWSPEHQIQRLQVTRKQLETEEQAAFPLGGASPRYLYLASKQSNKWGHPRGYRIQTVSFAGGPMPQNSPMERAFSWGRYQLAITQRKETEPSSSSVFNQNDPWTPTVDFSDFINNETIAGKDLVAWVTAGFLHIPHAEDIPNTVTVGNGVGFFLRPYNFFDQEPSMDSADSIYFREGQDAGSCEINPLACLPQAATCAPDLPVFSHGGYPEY
Procedure: (§1) Mushroom tyrosinase (400 units/mg) and plasma MAO (1000 units/gm) were obtained from Sigma Chemical Co. (St. Louis, MO, USA). A reaction mixture consisted of a substrate of 7 to 8 different concentrations (40 to 500 »M for mushroom tyrosinase and 20 to 200 »M for MAO) and of either mushroom tyrosinase (2.5 »g) or MAO (10 »g) in 1.0 mL of 0.05 M sodium phosphate buffer, pH 6.8 and 7.4 respectively. The reactions were carried out at 37°C in a shaking water bath, and stopped by taking 100 »L of the reaction mixture and adding it to 900 »L of 0.4 M HCLO₄. The disappearance of substrate was followed using HPLC (high pressure liquid chromatography) Km and Vmax values were calculated from the Lineweaver-Burk plots.

[4] = biological target: Mushroom tyrosinase (Agaricus bisporus, UniProt C7FF04); assay: Enzyme kinetics with tyrosinase (substrate disappearance by HPLC, Lineweaver-Burk); assay type: biochemical; details: result in words
Chain of Mushroom tyrosinase (C7FF04 1-392): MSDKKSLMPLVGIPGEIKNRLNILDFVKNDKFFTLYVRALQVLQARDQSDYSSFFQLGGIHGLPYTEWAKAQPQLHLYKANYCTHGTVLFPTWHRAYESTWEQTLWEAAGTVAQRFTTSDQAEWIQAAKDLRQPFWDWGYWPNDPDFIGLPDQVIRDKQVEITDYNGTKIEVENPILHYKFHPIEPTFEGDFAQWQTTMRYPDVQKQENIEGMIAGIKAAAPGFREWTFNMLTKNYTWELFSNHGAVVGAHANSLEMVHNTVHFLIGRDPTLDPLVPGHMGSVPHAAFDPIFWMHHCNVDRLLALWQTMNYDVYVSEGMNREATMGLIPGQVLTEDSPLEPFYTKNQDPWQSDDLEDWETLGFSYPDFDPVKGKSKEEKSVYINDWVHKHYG
Procedure: as §1

[5] = Experiment I, 200 mg/Kg i.p. daily for nine days
[6] = Experiment I, 400 mg/Kg i.p. daily for nine days
[7] = Experiment I, 600 mg/Kg i.p. daily for nine days
[8] = Experiment I, 800 mg/Kg i.p. daily for nine days
[9] = Experiment II, 400 mg/Kg i.p. daily for nine days
[10] = Experiment II, 800 mg/Kg i.p. daily for nine days
[11] = Experiment II, 1200 mg/Kg i.p. daily for nine days

## CC(=O)NCCSc1ccc(O)cc1 [N-Ac-4-S-CAP, N-ACETYL-4-S-CYSTEAMINYLPHENOL]
[1]; [5]
  %Gi: 39.8%
  Tumour Volume: 313 ± 83 mm^3
[1]; [6]
  %Gi: 57.3%
  Tumour Volume: 222 ± 13 mm^3
[1]; [7]
  %Gi: 63.18%
  Tumour Volume: 192 ± 48 mm^3
[1]; [8]
  %Gi: 74.4%
  Tumour Volume: 133 ± 11 mm^3
[1]; Experiment II, 200 mg/Kg i.p. daily for nine days
  %Gi: 32.0%
[1]; [9]
  %Gi: 34.0%
  Tumour Volume: 359 ± 52 mm^3
[1]; [10]
  %Gi: 63.4%
  Tumour Volume: 199 ± 26 mm^3
[1]; [11]
  %Gi: 70.7%
  Tumour Volume: 159 ± 23 mm^3
[2]; acute toxicity, mice
  lethal dose: 1400 mg/kg
[2]; experimental tests on animals, single dose
  per single dose toxicity levels: ~1,400 mg/kg of body weight
[2]; mouse, in vivo, ip
  LD50: 1400 mg/kg
[3]
  substrate for plasma MAO: not, however, a substrate for plasma MAO
[4]
  tyrosinase substrate: is also a tyrosinase substrate
